Source: patent US12514832B2, “Methods for using low-dose colchicine after myocardial infarction” (INSTITUT DE CARDIOLOGIE DE MONTREAL, priority 2019, dated 2026)
Where two headings read alike, the source gives them in different places.

System: rs6916345 (LINC01108/JARID2, chromosome 6); rs10128117 (SEPHS1, chromosome 10)
Conditions: for HR, gastrointestinal disorders / coef, gastrointestinal disorders / Coefficient, genetic association with gastrointestinal disorders / HR (hazard ratio), genetic association with gastrointestinal disorders: colchicine treatment arm
[1] = colchicine arm, males + females, on-treatment pgx population
[2] = rs535968 effect allele C vs T, males + females
[3] = rs615497 effect allele G vs A, males + females
[4] = rs825610 effect allele C vs T, males + females
[5] = rs2253619 chr 10, EA T vs NEA C
[6] = rs2253619 effect allele T vs C, males + females
[7] = rs2476986 effect allele T vs G, males + females
[8] = rs2783648 effect allele A vs T, males + females
[9] = rs7894075 effect allele C vs A, males + females
[10] = rs7901525 effect allele A vs C, males + females
[11] = rs7902331 effect allele T vs C, males + females
[12] = rs7916194 effect allele T vs A, males + females
[13] = rs7917549 effect allele A vs G, males + females
[14] = rs7919509 effect allele C vs T, males + females
[15] = rs9423893 effect allele A vs G, males + females
[16] = rs10128117 chr 10, EA A vs NEA T
[17] = rs10128117 effect allele A vs T, males + females
[18] = rs10906346 effect allele A vs G, males + females
[19] = rs11258319 effect allele T vs C, males + females
[20] = rs12210439 chr 6, EA A vs NEA G
[21] = rs41291319 effect allele A vs G, males + females
[22] = rs41291321 effect allele C vs G, males + females
[23] = rs58260827 effect allele CA vs C, males + females
[24] = rs61851591 chr 10, EA A vs NEA C
[25] = rs61851591 effect allele A vs C, males + females
[26] = rs61851592 chr 10, EA T vs NEA C
[27] = rs61851592 effect allele T vs C, males + females
[28] = rs61851593 chr 10, EA C vs NEA T
[29] = rs61851593 effect allele C vs T, males + females
[30] = rs61851598 effect allele A vs G, males + females
[31] = rs61851599 effect allele T vs C, males + females
[32] = rs70993041 chr 6, EA TAA vs NEA T
[33] = rs74795203 chr 10, EA G vs NEA A
[34] = rs74795203 effect allele G vs A, males + females
[35] = rs77006996 chr 10, EA T vs NEA C
[36] = rs77006996 effect allele T vs C, males + females
[37] = rs117874450 effect allele T vs C, males + females
[38] = rs552621122 effect allele A vs ATT, males + females

COc1cc2c(c(OC)c1OC)-c1ccc(OC)c(=O)cc1[C@@H](NC(C)=O)CC2 [Colchicine, colchicine]
Gastrointestinal disorders, hr per effect allele, rs857414 (G vs T) [1]: 0.6 | Gastrointestinal disorders, hr per effect allele, rs2327827 (G vs A) [1]: 0.5 | Gastrointestinal disorders, hr per effect allele, rs4620126 (G vs A) [1]: 0.6 | Gastrointestinal disorders, hr per effect allele, rs6459368 (A vs G) [1]: 0.5 | Gastrointestinal disorders, hr per effect allele, rs6903188 (G vs A) [1]: 0.6 | Gastrointestinal disorders, hr per effect allele, rs6918045 (T vs C) [1]: 0.6 | Gastrointestinal disorders, hr per effect allele, rs6920905 (C vs T) [1]: 0.5 | Gastrointestinal disorders, hr per effect allele, rs7747013 (G vs A) [1]: 0.5 | Gastrointestinal disorders, hr per effect allele, rs7751771 (C vs T) [1]: 0.5 | Gastrointestinal disorders, hr per effect allele, rs7764937 (C vs G) [1]: 0.5 | Gastrointestinal disorders, hr per effect allele, rs9349955 (T vs C) [1]: 0.5 | Gastrointestinal disorders, hr per effect allele, rs9358042 (T vs C) [1]: 0.6 | Gastrointestinal disorders, hr per effect allele, rs9358044 (T vs A) [1]: 0.5 | Gastrointestinal disorders, hr per effect allele, rs9370772 (T vs C) [1]: 0.6 | Gastrointestinal disorders, hr per effect allele, rs9382993 (C vs T) [1]: 0.5 | Gastrointestinal disorders, hr per effect allele, rs9464702 (G vs A) [1]: 0.6 | Gastrointestinal disorders, hr per effect allele, rs9476615 (T vs C) [1]: 0.6 | Gastrointestinal disorders, hr per effect allele, rs9476616 (G vs C) [1]: 0.5 | Gastrointestinal disorders, hr per effect allele, rs12210439 (A vs G) [1]: 0.6 | Gastrointestinal disorders, hr per effect allele, rs70993041 (TAA vs T) [1]: 0.5 | times more likely to have reported gastrointestinal disorders with colchicine than with placebo (genotype A/A at rs6916345): 2.4 times | less likely to have reported gastrointestinal disorders with colchicine than with placebo (genotype G/G at rs6916345): 57% | times more likely to have reported gastrointestinal disorders with colchicine than with placebo (genotype T/A at rs10128117): 3.7 times | HR, gastrointestinal disorders [2]: 2.3 | coef, gastrointestinal disorders [2]: 0.8496 | HR, gastrointestinal disorders [3]: 2.4 | coef, gastrointestinal disorders [3]: 0.8683 | HR, gastrointestinal disorders [4]: 2.4 | coef, gastrointestinal disorders [4]: 0.8604 | Coefficient, genetic association with gastrointestinal disorders [5]: 0.921 | HR (hazard ratio), genetic association with gastrointestinal disorders [5]: 2.51 | HR, gastrointestinal disorders [6]: 2.5 | coef, gastrointestinal disorders [6]: 0.9205 | Coefficient, genetic association with gastrointestinal disorders (rs2327827 chr 6, EA G vs NEA A): −0.620 | HR (hazard ratio), genetic association with gastrointestinal disorders (rs2327827 chr 6, EA G vs NEA A): 0.54 | HR, gastrointestinal disorders [7]: 2.4 | coef, gastrointestinal disorders [7]: 0.8717 | HR, gastrointestinal disorders [8]: 2.4 | coef, gastrointestinal disorders [8]: 0.8625 | Coefficient, genetic association with gastrointestinal disorders (rs6459368 chr 6, EA A vs NEA G): −0.602 | HR (hazard ratio), genetic association with gastrointestinal disorders (rs6459368 chr 6, EA A vs NEA G): 0.55 | Coefficient, genetic association with gastrointestinal disorders (rs6903188 chr 6, EA G vs NEA A): −0.598 | HR (hazard ratio), genetic association with gastrointestinal disorders (rs6903188 chr 6, EA G vs NEA A): 0.55 | Coefficient, genetic association with gastrointestinal disorders (rs6916345 chr 6, EA G vs NEA A): −0.639 | HR (hazard ratio), genetic association with gastrointestinal disorders (rs6916345 chr 6, EA G vs NEA A): 0.53 | Coefficient, genetic association with gastrointestinal disorders (rs6918045 chr 6, EA T vs NEA C): −0.598 | HR (hazard ratio), genetic association with gastrointestinal disorders (rs6918045 chr 6, EA T vs NEA C): 0.55 | Coefficient, genetic association with gastrointestinal disorders (rs6920905 chr 6, EA C vs NEA T): −0.628 | HR (hazard ratio), genetic association with gastrointestinal disorders (rs6920905 chr 6, EA C vs NEA T): 0.53 | Coefficient, genetic association with gastrointestinal disorders (rs7747013 chr 6, EA G vs NEA A): −0.600 | HR (hazard ratio), genetic association with gastrointestinal disorders (rs7747013 chr 6, EA G vs NEA A): 0.55 | Coefficient, genetic association with gastrointestinal disorders (rs7751771 chr 6, EA C vs NEA T): −0.598 | HR (hazard ratio), genetic association with gastrointestinal disorders (rs7751771 chr 6, EA C vs NEA T): 0.55 | Coefficient, genetic association with gastrointestinal disorders (rs7764937 chr 6, EA C vs NEA G): −0.599 | HR (hazard ratio), genetic association with gastrointestinal disorders (rs7764937 chr 6, EA C vs NEA G): 0.55 | HR, gastrointestinal disorders [9]: 2.4 | coef, gastrointestinal disorders [9]: 0.8903 | HR, gastrointestinal disorders [10]: 2.4 | coef, gastrointestinal disorders [10]: 0.8865 | HR, gastrointestinal disorders [11]: 2.4 | coef, gastrointestinal disorders [11]: 0.8596 | HR, gastrointestinal disorders [12]: 2.5 | coef, gastrointestinal disorders [12]: 0.9034 | HR, gastrointestinal disorders [13]: 2.4 | coef, gastrointestinal disorders [13]: 0.8864 | HR, gastrointestinal disorders [14]: 2.5 | coef, gastrointestinal disorders [14]: 0.9034 | Coefficient, genetic association with gastrointestinal disorders (rs9349955 chr 6, EA T vs NEA C): −0.633 | HR (hazard ratio), genetic association with gastrointestinal disorders (rs9349955 chr 6, EA T vs NEA C): 0.53 | Coefficient, genetic association with gastrointestinal disorders (rs9358044 chr 6, EA T vs NEA A): −0.610 | HR (hazard ratio), genetic association with gastrointestinal disorders (rs9358044 chr 6, EA T vs NEA A): 0.54 | Coefficient, genetic association with gastrointestinal disorders (rs9382993 chr 6, EA C vs NEA T): −0.636 | HR (hazard ratio), genetic association with gastrointestinal disorders (rs9382993 chr 6, EA C vs NEA T): 0.53 | HR, gastrointestinal disorders [15]: 2.4 | coef, gastrointestinal disorders [15]: 0.8599 | Coefficient, genetic association with gastrointestinal disorders (rs9476616 chr 6, EA G vs NEA C): −0.607 | HR (hazard ratio), genetic association with gastrointestinal disorders (rs9476616 chr 6, EA G vs NEA C): 0.55 | Coefficient, genetic association with gastrointestinal disorders [16]: 0.934 | HR (hazard ratio), genetic association with gastrointestinal disorders [16]: 2.55 | HR, gastrointestinal disorders [17]: 2.5 | coef, gastrointestinal disorders [17]: 0.9342 | HR, gastrointestinal disorders [18]: 2.5 | coef, gastrointestinal disorders [18]: 0.902 | HR, gastrointestinal disorders [19]: 2.4 | coef, gastrointestinal disorders [19]: 0.8718 | Coefficient, genetic association with gastrointestinal disorders [20]: −0.594 | HR (hazard ratio), genetic association with gastrointestinal disorders [20]: 0.55 | HR, gastrointestinal disorders [21]: 2.4 | coef, gastrointestinal disorders [21]: 0.8843 | HR, gastrointestinal disorders [22]: 2.4 | coef, gastrointestinal disorders [22]: 0.8594 | HR, gastrointestinal disorders [23]: 2.4 | coef, gastrointestinal disorders [23]: 0.8895 | Coefficient, genetic association with gastrointestinal disorders [24]: 0.917 | HR (hazard ratio), genetic association with gastrointestinal disorders [24]: 2.50 | HR, gastrointestinal disorders [25]: 2.5 | coef, gastrointestinal disorders [25]: 0.9168 | Coefficient, genetic association with gastrointestinal disorders [26]: 0.921 | HR (hazard ratio), genetic association with gastrointestinal disorders [26]: 2.51 | HR, gastrointestinal disorders [27]: 2.5 | coef, gastrointestinal disorders [27]: 0.9206 | Coefficient, genetic association with gastrointestinal disorders [28]: 0.921 | HR (hazard ratio), genetic association with gastrointestinal disorders [28]: 2.51 | HR, gastrointestinal disorders [29]: 2.5 | coef, gastrointestinal disorders [29]: 0.9206 | HR, gastrointestinal disorders [30]: 2.4 | coef, gastrointestinal disorders [30]: 0.8657 | HR, gastrointestinal disorders [31]: 2.4 | coef, gastrointestinal disorders [31]: 0.8665 | Coefficient, genetic association with gastrointestinal disorders [32]: −0.632 | HR (hazard ratio), genetic association with gastrointestinal disorders [32]: 0.53 | Coefficient, genetic association with gastrointestinal disorders [33]: 0.921 | HR (hazard ratio), genetic association with gastrointestinal disorders [33]: 2.51 | HR, gastrointestinal disorders [34]: 2.5 | coef, gastrointestinal disorders [34]: 0.9207 | Coefficient, genetic association with gastrointestinal disorders [35]: 0.917 | HR (hazard ratio), genetic association with gastrointestinal disorders [35]: 2.50 | HR, gastrointestinal disorders [36]: 2.5 | coef, gastrointestinal disorders [36]: 0.9167 | HR, gastrointestinal disorders [37]: 2.4 | coef, gastrointestinal disorders [37]: 0.8656 | HR, gastrointestinal disorders [38]: 2.4 | coef, gastrointestinal disorders [38]: 0.8864
